For data set [1], the target named is T1, glucocorticoid receptor (Homo sapiens, UniProt P04150).
T1 sequence (P04150 1-777): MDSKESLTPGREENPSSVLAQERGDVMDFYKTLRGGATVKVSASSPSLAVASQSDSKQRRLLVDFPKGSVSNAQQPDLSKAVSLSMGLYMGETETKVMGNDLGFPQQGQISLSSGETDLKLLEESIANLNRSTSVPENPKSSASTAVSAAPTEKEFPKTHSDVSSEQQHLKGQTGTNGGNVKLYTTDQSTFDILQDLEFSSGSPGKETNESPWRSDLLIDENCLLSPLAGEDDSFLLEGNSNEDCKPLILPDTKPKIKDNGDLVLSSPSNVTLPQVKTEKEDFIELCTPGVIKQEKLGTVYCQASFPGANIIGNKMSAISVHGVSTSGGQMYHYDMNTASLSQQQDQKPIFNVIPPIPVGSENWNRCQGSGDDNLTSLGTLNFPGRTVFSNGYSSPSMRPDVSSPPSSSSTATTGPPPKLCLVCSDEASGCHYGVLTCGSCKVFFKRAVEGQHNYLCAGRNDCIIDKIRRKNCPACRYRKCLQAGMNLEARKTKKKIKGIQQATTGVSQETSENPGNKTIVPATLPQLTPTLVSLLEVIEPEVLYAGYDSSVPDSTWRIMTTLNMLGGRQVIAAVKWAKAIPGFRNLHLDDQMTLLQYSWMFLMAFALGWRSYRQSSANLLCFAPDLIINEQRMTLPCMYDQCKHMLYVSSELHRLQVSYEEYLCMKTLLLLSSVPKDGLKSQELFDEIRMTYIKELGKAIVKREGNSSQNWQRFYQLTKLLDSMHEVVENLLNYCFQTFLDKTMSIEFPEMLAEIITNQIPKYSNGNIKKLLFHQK
As to the kind of experiment: Selectivity for transrepression over transactivation in vitro. It is filed as cell-based. Set-up: expressed in transfected cells; host or cells: COS 7 (African green monkey kidney, deficient in endogenous GR).

Data set [2] concerns tyrosine amino transferase (TAT). As to the kind of experiment: Quantitation of tyrosine amino transferase (TAT) in the livers of air pouch mice. It is filed as in vivo. The conditions noted are these: 3 μg i.p., FIG. 22. Here is the method: At time 0, mice received either 0.5 ml of zymosan (1 mg) (group A, B, C) injected locally into the air-pouch. Group D and E were left untreated at this time-point. At 4 h post-zymosan the animals were placed in CO2. Air-pouches were then washed with 2 ml of PBS containing 3 mM EDTA, and livers were recovered and snap frozen for later analysis.
Quantitation of Tyrosine Amino Transferase (TAT) Protein in the Livers: In this method a colourimetric approach is used to quantitate TAT activity. The TAT enzyme catalyses the following reaction: L-tyrosine+2-oxoglutarate⇄4-hydroxyphenylpyruvate (pHPP)+L-glutamate
This reaction also requires pyridoxal phosphate (PLP) as a co-factor. Strong alkali conditions can then be used to convert pHPP to p-hydroxybenzaldehyde (pHBA) and oxalate. The amount of pHBA can then be assessed by measuring its absorbance at 331 nm (extinction coefficient 19,900 M^−1cm^−1) this figure is then assumed to be directly proportional to TAT activity. Livers were homogenized and the cells were stored on ice. […]
For each reaction a control reaction was set up without the ketoglutarate. […] The samples were incubated at room temperature for a further 30 mins and then the absorbance of each sample was assessed at 331 nm on a spectrophotometer (Ultrospec III, Pharmacia).

The target of data set [3] is T1, glucocorticoid receptor. As to the kind of experiment: Ligand binding competition assay, 3H Dexamethasone. Set-up: Human HeLa 53 cells; endogenous in cells. The conditions noted are these: Human HeLa 53 cells, 2 hours @25° C. Here is the method: Binding of compound G to the glucocorticoid receptor was investigated using a standard competition assay. The conditions were as follows:
IC50 values were determined by a non-linear, least squares regression The KI values were calculated using the equation of Cheng and Prusoff using the observed IC50 of the test compound, the concentration of radioligand employed in the assay, and the historic values for the Kd for the ligand. The Hill coefficient (nH), defined as the slope of the competitive binding curve, was calculated.

Data set [4] deals with T2, progesterone receptor (Homo sapiens, UniProt P06401).
T2 sequence (P06401 1-933): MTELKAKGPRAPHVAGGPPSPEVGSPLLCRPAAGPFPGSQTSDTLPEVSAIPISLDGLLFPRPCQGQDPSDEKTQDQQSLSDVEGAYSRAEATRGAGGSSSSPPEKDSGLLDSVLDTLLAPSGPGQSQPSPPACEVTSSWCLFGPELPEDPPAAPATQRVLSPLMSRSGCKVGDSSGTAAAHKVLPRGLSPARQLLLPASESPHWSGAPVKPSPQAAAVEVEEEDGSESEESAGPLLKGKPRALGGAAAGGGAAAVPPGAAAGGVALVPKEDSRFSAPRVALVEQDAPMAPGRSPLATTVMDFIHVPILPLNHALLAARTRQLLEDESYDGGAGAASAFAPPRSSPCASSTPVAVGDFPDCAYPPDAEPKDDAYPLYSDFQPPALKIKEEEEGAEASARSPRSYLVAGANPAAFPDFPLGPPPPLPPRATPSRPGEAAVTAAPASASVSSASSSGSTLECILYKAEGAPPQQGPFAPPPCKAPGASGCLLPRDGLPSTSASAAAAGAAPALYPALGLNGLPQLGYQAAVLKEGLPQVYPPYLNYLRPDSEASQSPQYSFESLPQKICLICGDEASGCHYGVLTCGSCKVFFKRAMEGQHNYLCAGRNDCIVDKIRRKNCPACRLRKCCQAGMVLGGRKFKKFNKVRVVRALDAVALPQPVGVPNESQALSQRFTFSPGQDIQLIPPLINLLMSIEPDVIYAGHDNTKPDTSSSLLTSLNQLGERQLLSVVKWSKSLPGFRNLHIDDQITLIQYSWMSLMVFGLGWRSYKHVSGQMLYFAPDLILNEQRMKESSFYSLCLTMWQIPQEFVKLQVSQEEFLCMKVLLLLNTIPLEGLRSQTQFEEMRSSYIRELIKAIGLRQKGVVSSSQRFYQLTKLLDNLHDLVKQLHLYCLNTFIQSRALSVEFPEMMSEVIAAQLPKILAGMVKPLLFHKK
As to the kind of experiment: Classic receptor binding assay, progesterone receptor (data not shown).

“Also recorded” adds a separate entry of the source.

Turning to `CCCNC(=O)C1(O)C(C)CC2C3CCC4=CC(=O)C=CC4(C)C3(F)C(O)CC21C` (stereo not shown) [Compound G], the “selectivity for transrepression over transactivation” value in data set [1] was “approximately 1000 fold”. Further, in data set [2], the “liver TAT level compared with vehicle control groups” value is “does not cause-induction; also recorded: did not reduce the level of TAT”. For the same compound, the “binding to the glucocorticoid receptor, competition with 3H Dexamethasone” value in data set [3] is “bound to the glucocoticoid receptor; also recorded: right shifted when compared to dexamethasone; also recorded: less potent ligand than dexamethasone”. In addition, the “binding to the progesterone receptor” value in data set [4] is on record as “not to bind to the progesterone receptor”.

These data come from patent US7763596B2, “Selective glucocorticoid receptor agonists” (The University of Manchester, priority 2000, dated 2010).
